Source: PubChem BioAssay (NCI)
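Compound exposure: 48 hours, 5 concentrations, 96-well plates. The concentration for 50% growth inhibition is given as GI50. TGI marks complete inhibition of growth.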

Each molecule was assayed on HS 578T breast (assay: NCI tumour cell line growth inhibition, 48 h).
In the case of `CN(C)CCCN1CCC2(CCC(C(C)(C)C)CC2)CC1`, the TGI is reported as 4.89 µM. In the case of `Cc1[nH]nc(C(F)(F)F)c1N=NN1CCOCC1`, the TGI is reported as 40.5 µM. Molecule `S=C(S)NCNC(=S)S.[Zn+2]` has a TGI of over 100 µM. `CC1(CCOCc2ccccc2)NC(=O)NC1=O` (configuration not stated) showed a TGI of over 100 µM. `O=C(Cn1c[n+](CC(=O)c2ccc(-c3ccccc3)cc2)c2ccccc21)Nc1cccc2cccnc12` gave a GI50 of 1.7 µM and a TGI of 4.3 µM. For `c1ccc(CCNc2ccccn2)nc1`, the TGI was over 100 µM.

The molecules below were run on SN12K1 renal (assay: NCI tumour cell line growth inhibition, 48 h).
`CCC(/C=C/C1OC(=O)C=CC1C)=C\C(C)C/C=C/C(C)=C/C(C)C(=O)C(C)C(O)C(C)C/C(C)=C/C(=O)O` (configuration not stated) showed a TGI of 4.74 µM. Molecule `CC1(C)N=C(N)N=C(N)N1c1ccc(CCc2ccccc2)cc1` has a TGI of over 100 µM. For `O=C(O)CCC(NC(=O)c1ccc(Nc2nc3cc(C(F)(F)F)ccc3nc2-c2ccccc2)cc1)C(=O)O` (configuration not stated), the TGI was over 100 µM.

What follows are molecules tested on MDA-N (assay: NCI tumour cell line growth inhibition, 48 h).
In the case of `Cn1c(=O)c(-c2ccccc2)c(N=[N+]=[N-])c2ccccc21`, the TGI is reported as over 100 µM. For `CCC(/C=C/C1OC(=O)C=CC1C)=C\C(C)C/C=C/C(C)=C/C(C)C(=O)C(C)C(O)C(C)C/C(C)=C/C(=O)O` (configuration not stated), the TGI was 0.000118 µM. `CN(C)CCCN1CCC2(CCC(C(C)(C)C)CC2)CC1` gave a TGI of 2.44 µM. `S=C(S)NCNC(=S)S.[Zn+2]` was tested, and the TGI was over 100 µM. Work on `CC1(CCOCc2ccccc2)NC(=O)NC1=O` (configuration not stated) yielded a TGI of over 100 µM. With `c1ccc(CCNc2ccccn2)nc1` the TGI was over 100 µM.

These molecules were tested on KM20L2 colon (assay: NCI tumour cell line growth inhibition, 48 h).
With `CCC(/C=C/C1OC(=O)C=CC1C)=C\C(C)C/C=C/C(C)=C/C(C)C(=O)C(C)C(O)C(C)C/C(C)=C/C(=O)O` (configuration not stated) the TGI was 8.33 µM. With `CC1(C)N=C(N)N=C(N)N1c1ccc(CCc2ccccc2)cc1` the TGI was over 100 µM. Molecule `CC(OC(C)(C)C)[C@H](NC(=O)OCC(Cl)(Cl)Cl)C(=O)O` (some centres not stated) has a TGI of over 100 µM. `O=C(O)CCC(NC(=O)c1ccc(Nc2nc3cc(C(F)(F)F)ccc3nc2-c2ccccc2)cc1)C(=O)O` (configuration not stated) was tested, and the TGI was 53.3 µM. Molecule `NCc1ccccc1-c1c2nc(c(-c3ccccc3CN)c3ccc([nH]3)c(-c3ccccc3CN)c3nc(c(-c4ccccc4CN)c4ccc1[nH]4)C=C3)C=C2` has a TGI of 63 µM.

What follows are molecules tested on DLD-1 colon (assay: NCI tumour cell line growth inhibition, 48 h).
For `CCC(/C=C/C1OC(=O)C=CC1C)=C\C(C)C/C=C/C(C)=C/C(C)C(=O)C(C)C(O)C(C)C/C(C)=C/C(=O)O` (configuration not stated), the TGI was 35.8 µM. `CC1(C)N=C(N)N=C(N)N1c1ccc(CCc2ccccc2)cc1` showed a TGI of over 100 µM. With `CC(OC(C)(C)C)[C@H](NC(=O)OCC(Cl)(Cl)Cl)C(=O)O` (some centres not stated) the TGI was over 100 µM. With `O=C(O)CCC(NC(=O)c1ccc(Nc2nc3cc(C(F)(F)F)ccc3nc2-c2ccccc2)cc1)C(=O)O` (configuration not stated) the TGI was over 100 µM.

These molecules were tested on T-47D breast (assay: NCI tumour cell line growth inhibition, 48 h).
For `Cn1c(=O)c(-c2ccccc2)c(N=[N+]=[N-])c2ccccc21`, the TGI was over 100 µM. Work on `CN(C)CCCN1CCC2(CCC(C(C)(C)C)CC2)CC1` yielded a TGI of 3.99 µM. `Cc1[nH]nc(C(F)(F)F)c1N=NN1CCOCC1` was tested, and the TGI was over 42.8 µM. Work on `S=C(S)NCNC(=S)S.[Zn+2]` yielded a TGI of over 100 µM.

Each molecule was assayed on SR leukemia (assay: NCI tumour cell line growth inhibition, 48 h).
For `Cn1c(=O)c(-c2ccccc2)c(N=[N+]=[N-])c2ccccc21`, the TGI was 75.4 µM. `CCC(/C=C/C1OC(=O)C=CC1C)=C\C(C)C/C=C/C(C)=C/C(C)C(=O)C(C)C(O)C(C)C/C(C)=C/C(=O)O` (configuration not stated) gave a TGI of 2.28e-05 µM. In the case of `CN(C)CCCN1CCC2(CCC(C(C)(C)C)CC2)CC1`, the TGI is reported as 4.85 µM. Work on `Cc1[nH]nc(C(F)(F)F)c1N=NN1CCOCC1` yielded a TGI of 2.77 µM. Work on `CC1(CCOCc2ccccc2)NC(=O)NC1=O` (configuration not stated) yielded a TGI of over 100 µM. `CC(OC(C)(C)C)[C@H](NC(=O)OCC(Cl)(Cl)Cl)C(=O)O` (some centres not stated) showed a TGI of over 100 µM.

What follows are molecules tested on 786-0 renal (assay: NCI tumour cell line growth inhibition, 48 h).
`CN(C)CCCN1CCC2(CCC(C(C)(C)C)CC2)CC1` showed a TGI of 3.09 µM. Work on `S=C(S)NCNC(=S)S.[Zn+2]` yielded a TGI of over 100 µM. With `CC1(CCOCc2ccccc2)NC(=O)NC1=O` (configuration not stated) the TGI was over 100 µM. `c1ccc(CCNc2ccccn2)nc1` gave a TGI of over 100 µM.

Each molecule was assayed on P388 leukemia (assay: NCI tumour cell line growth inhibition, 48 h).
Molecule `CCC(/C=C/C1OC(=O)C=CC1C)=C\C(C)C/C=C/C(C)=C/C(C)C(=O)C(C)C(O)C(C)C/C(C)=C/C(=O)O` (configuration not stated) has a TGI of 6.6 µM. For `CC1(C)N=C(N)N=C(N)N1c1ccc(CCc2ccccc2)cc1`, the TGI was 12.3 µM. For `O=C(O)CCC(NC(=O)c1ccc(Nc2nc3cc(C(F)(F)F)ccc3nc2-c2ccccc2)cc1)C(=O)O` (configuration not stated), the TGI was over 100 µM.

Each molecule was assayed on SNB-78 CNS (assay: NCI tumour cell line growth inhibition, 48 h).
`CCC(/C=C/C1OC(=O)C=CC1C)=C\C(C)C/C=C/C(C)=C/C(C)C(=O)C(C)C(O)C(C)C/C(C)=C/C(=O)O` (configuration not stated) showed a TGI of 14.3 µM. For `CC1(C)N=C(N)N=C(N)N1c1ccc(CCc2ccccc2)cc1`, the TGI was over 100 µM. `CC(OC(C)(C)C)[C@H](NC(=O)OCC(Cl)(Cl)Cl)C(=O)O` (some centres not stated) gave a TGI of over 100 µM. `O=C(O)CCC(NC(=O)c1ccc(Nc2nc3cc(C(F)(F)F)ccc3nc2-c2ccccc2)cc1)C(=O)O` (configuration not stated) was tested, and the TGI was over 100 µM. Work on `NCc1ccccc1-c1c2nc(c(-c3ccccc3CN)c3ccc([nH]3)c(-c3ccccc3CN)c3nc(c(-c4ccccc4CN)c4ccc1[nH]4)C=C3)C=C2` yielded a TGI of 40.9 µM.
